# Data published in publication PMC12344264, “Mechanistic, in-silico and in vitro studies with nitrofurans reveal potent leishmanicidal activity and inhibition of trypanothione reductase” (International Journal for Parasitology: Drugs and Drug …, 2025).
# Like-named read-outs stand apart in the source and are kept apart here.
# What was measured:
# L. donovani TryR = biological target: T1, L. donovani TryR (Leishmania donovani, UniProt P39050); assay: biochemical; details: for Type of inhibition: Lineweaver-Burk double reciprocal plot, varying T[S]2
# T1 construct: endogenous in cells; host or cells: L. donovani-iRFP (LV9) axenic amastigotes, crude cell extract
# T1 sequence (P39050 whole entry): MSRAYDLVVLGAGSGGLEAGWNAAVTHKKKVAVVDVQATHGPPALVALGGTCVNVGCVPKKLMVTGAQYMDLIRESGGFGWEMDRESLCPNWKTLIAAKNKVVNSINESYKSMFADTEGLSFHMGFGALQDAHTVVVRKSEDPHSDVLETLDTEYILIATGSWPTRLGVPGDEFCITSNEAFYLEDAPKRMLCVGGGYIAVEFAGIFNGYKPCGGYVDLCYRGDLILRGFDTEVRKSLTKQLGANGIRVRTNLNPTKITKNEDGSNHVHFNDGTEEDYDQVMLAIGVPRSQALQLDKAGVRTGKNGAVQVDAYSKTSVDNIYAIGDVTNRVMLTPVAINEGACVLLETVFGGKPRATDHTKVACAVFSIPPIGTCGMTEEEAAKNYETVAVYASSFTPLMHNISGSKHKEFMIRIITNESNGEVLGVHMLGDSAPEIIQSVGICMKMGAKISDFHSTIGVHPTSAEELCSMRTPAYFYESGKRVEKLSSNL
# Description: The activity of L. donovani TryR was measured in the presence of different concentrations of nitrofurans according to the protocol previously described ([Melcón-Fernández et al., 2023]). Briefly, 1 × 10^10 L. donovani-iRFP axenic amastigotes were washed twice in PBS and lysed with a solution containing 1 mM EDTA, 40 mM HEPES, 50 mM Tris HCl pH 7.5, 2 % (v/v) Triton X-100 and Pierce™ Protease Inhibitors Mini Tablets (ThermoFisher Scientific, Waltham, MA, USA). Cell extracts were prepared by mechanical disruption of the cells with 0.5 mm diameter glass beads (Merck, Darmstadt, Germany) and the supernatant obtained by centrifugation at 10,000 rcf for 5 min at 4 °C was used to measure TryR activity in 96-well plates. […] Cell extracts diluted in Tris HCl pH 7.5 (0.43 μg of total protein in 50 μL) were added to launch the reaction. The negative control consisted of 2.5 % DMSO, whereas the blank reaction included the TryR assay solution without T [S]2. […] To determine steady-state conditions, enzymatic activity was measured at 412 nm (ε = 14,150 M^−1 cm^−1) for a period of up to 120 min (with 5 min intervals) at 26 °C in a Varioskan Lux spectrophotometer (ThermoFisher Scientific, Waltham, MA, USA). The experiment was carried out in triplicate and included three technical replicates.
# [1] = Cytotoxicity in bone marrow-differentiated macrophages, alamarBlue, 72 h; assay type: cell-based; details: mouse, bone marrow-differentiated macrophages (BMDM); 72 h, alamarBlue, uninfected mice; read-out: BMDM CC50
# Description: (§1) For cytotoxicity tests, several mammalian cell lines were used. […] Primary cell cultures were also used to evaluate cytotoxicity. […] BMDM cells were differentiated for one week with 30 % […] from L929 cell line.
# (§2) The in vitro cytotoxicity of the selected nitrofurans was evaluated in HepG2, RAW 264.7 cells, splenocytes and BMDM. In each well of a 96-well microtitre plate, 100 μL containing 10,000 HepG2 or RAW 264.7 cells were incubated for 24h at 37 °C and 5 % CO2 to allow the cells to settle. For primary cells, 100 μL containing 100,000 BMDM or 1,000,000 splenocytes were added to each well. Subsequently, […] of one-half serial dilutions of each compound diluted in DMEM (for HepG2 cells), RPMI medium (for RAW cells), splenocyte medium (for splenocytes) or BMDM medium supplemented with 10 % GM-CSF (for BMDM), were added to each well. The cytotoxic effect of the compounds was measured after 72 h of incubation at 37 °C and 5 % CO2. For this purpose, a 10 % (v/v) of the alamarBlue™ cell viability reagent (Invitrogen, Fisher Scientific International Inc., Pittsburgh, PA, USA) was added, and the reaction was incubated for 4 h at 37 °C and 5 % CO2. Fluorescence was measured using a Varioskan Lux spectrophotometer (ThermoFisher Scientific, Waltham, MA, USA). Positive controls consisting of 0.1 % (v/v) H2O2, and negative controls, consisting of 0.1 % (v/v) DMSO, were also included on each plate.
# (§3) All experiments were carried out in triplicate and included at least three technical replicates. […] The SI was calculated from the CC50/EC50 ratio.
# [2] = system: L. donovani-iRFP axenic amastigotes; assay: Antileishmanial effect on axenic amastigotes (iRFP fluorescence viability, 72 h); assay type: cell-based; details: Leishmania donovani
# Description: (§4) For efficacy studies, L. donovani-iRFP, a genetically modified strain of L. donovani LV9 constitutively expressing the gene encoding the infrared fluorescent protein (iRFP) ([Melcón-Fernández et al., 2023]), was used. This strain was grown as promastigotes in Schneider's insect medium (Sigma-Aldrich, Merck, Darmstadt, Germany) supplemented with 20 % (v/v) foetal bovine serum (FBS) (Gibco, ThermoFisher Scientific, Waltham, MA, USA) and […] antibiotic cocktail (100 U/mL penicillin and 100 μg/mL streptomycin) (Hyclone, ThermoFisher Scientific, Waltham, MA, USA) at 26 °C until mice were infected ([Carballeira et al., 2016]). Axenic and intramacrophage amastigotes were isolated from six-to eight-week-old female Balb/c mice (see below) that had been infected intraperitoneally with 1.5 × 10^9 metacyclic L. donovani-iRFP promastigotes. To obtain axenic amastigotes, bone marrow was extracted from the femur and tibia of 8- to 10-week-old infected mice and passed through a 100 μm cell strainer. After centrifugation at 3500 rcf for 10 min at room temperature, cell suspensions were resuspended in medium containing 15 mM KCl; 136 mM KH2PO4; 10 mM K2HPO4.3H2O; 0.5 mM MgSO4.7H2O; 24 mM NaHCO3; 22 mM glucose; 1 mM glutamine, 1 × RPMI 1640 vitamin mix (Sigma-Aldrich, Merck, Darmstadt, Germany), 10 mM folic acid, 100 mM adenosine, 1 × RPMI amino acid mix (Sigma-Aldrich, Merck, Darmstadt, Germany), 5 mg/mL hemin, 25 mM 2-morpholinoethanesulfonic acid (MES) pH 5.6, supplemented with 10 % FBS (Gibco, ThermoFisher Scientific, Waltham, MA, USA) and antibiotic cocktail, and incubated at 37 °C and 5 % CO2. To obtain intramacrophage amastigotes, spleens from infected Balb/c mice were cut into pieces, ground with 2 mg/mL collagenase D (Merck, Darmstadt, Germany) and passed through a 100 μm cell strainer. The splenocyte-enriched cell suspension containing intramacrophage amastigotes was resuspended in RPMI medium (Gibco, Fisher Scientific International Inc., Pittsburgh, PA, USA) supplemented with 20 % FBS, 1 mM sodium pyruvate, 24 mM NaHCO3, 2 mM L-glutamine, 1 × RPMI vitamins, 25 mM HEPES pH 7.2 and antibiotic cocktail ([Ashok et al., 2016]).
# (§5) The antileishmanial effect of the nitrofurans selected in this study was tested both in vitro on axenic L. donovani-iRFP amastigotes and ex vivo on intramacrophage amastigotes according to previously published methods ([Melcón-Fernández et al., 2023], [2024]; [Andrés-Rodríguez et al., 2024]). Assays were performed in a final volume of […] containing 20,000 axenic amastigotes or a number of L. donovani-iRFP-infected murine splenocytes representing 150,000 relative fluorescence units (RFU), in each well of a black 384-well microtiter plate with optical bottom. In addition, 40 μL of one-half serial dilutions of each compound in amastigotes culture medium (for axenic amastigotes) or in supplemented RPMI medium (for intramacrophage amastigotes) were added to each well. Positive (amphotericin B at a final concentration of 18 μM) and negative (0.1 % v/v DMSO) controls were included on each plate. The plates were incubated at 37 °C and 5 % CO2 for a maximum of 72 h. Fluorescence emitted by viable L. donovani-iRFP was measured on an Odyssey infrared imaging system (Li-Cor, NE, USA).
# as §3
# [3] = Cytotoxicity, alamarBlue, 72 h; assay type: cell-based, murine; details: mouse, RAW 264.7 cells; 72 h, alamarBlue; read-out: RAW 264.7 cells CC50
# Description: as §1, §2, §3
# [4] = system: L. donovani-iRFP axenic amastigotes; assay: ROS production by axenic amastigotes (DCFH-DA, flow cytometry); assay type: cell-based, Leishmania donovani; details: compound at its axenic EC50, 3 h
# Description: To assess ROS production in L. donovani-iRFP, axenic amastigotes were treated with nitrofurans at the concentration equivalent to their EC50 calculated in viability experiments. As positive control of oxidative stress induction, cultures were treated with 0.01 % H2O2 (v/v), whereas 0.03 % (v/v) DMSO was added as negative control. After an incubation period of 3 h at 37 °C, cells were harvested by centrifugation at 3500 rcf for 10 min, washed in phosphate-buffered saline (PBS), centrifuged again and resuspended in PBS. Cells were labeled with 5 μM 2′,7′-dichlorofluorescein diacetate (DCFH-DA, MedChemExpress) for 30 min at 37 °C. Then, cells were centrifuged at 3500 rcf for 5 min, washed, and resuspended in PBS. The cell suspension was stored at 4 °C until the analysis by flow cytometry, which was performed in a CytoFLEX SRT (Beckman Coulter). The experiment was carried out in triplicate and included three technical replicates.
# [5] = system: L. donovani-iRFP intramacrophage amastigotes; assay: Ex vivo antileishmanial effect on intramacrophage amastigotes (infected murine splenocytes, iRFP fluorescence, 72 h); assay type: cell-based; details: Leishmania donovani, Splenocyte
# Description: as §4, §5, §3
# [6] = Cytotoxicity, alamarBlue, 72 h; assay type: cell-based; details: human, HepG2 cells; 72 h, alamarBlue; read-out: HepG2 cells CC50
# Description: as §1, §2, §3
# [7] = Cytotoxicity in primary splenocytes, alamarBlue, 72 h; assay type: cell-based; details: mouse, primary splenocytes from healthy, non-infected mice; 72 h, alamarBlue, uninfected mice; read-out: Splenocytes CC50
# Description: as §1, §2, §3
# Leishmania = system: Leishmania; design: method as in Domínguez-Asenjo et al., 2021; details: oral administration, spleen and liver; ref Domínguez-Asenjo et al., 2021; cited from earlier work
# L. major = system: L. major; design: method as in Domínguez-Asenjo et al., 2021; details: ref Domínguez-Asenjo et al., 2021; cited from earlier work
# S. typhimurium TA100 = assay: Ames mutagenicity test (Ames 384-ISO Well Test); details: for Mutagenic effect TA100-S9: with metabolic activation (S9 mix); for Mutagenic effect TA100: without S9 mix
# [8] = T[S]2 25-150 μM, inhibitor 6.25-100 μM, NADPH 0.20 mM, read-out: Ki
Structure (SMILES),Type of inhibition (L. donovani TryR),Ki (L. donovani TryR; [8]) [µM],CC50 at 72 h [1] [µM],EC50 [2] [µM],CC50 at 72 h [3] [µM],Negative ROS (unstressed population) [4] [%],Positive ROS (stressed population) [4] [%],EC50 [5] [µM],CC50 at 72 h [6] [µM],CC50 at 72 h [7] [µM],reduction of parasite load (Leishmania) [%],outcome in cutaneous leishmaniasis model (L. major),Mutagenic effect TA100-S9 (S. typhimurium TA100; 0.5 μM),Mutagenic effect TA100 (S. typhimurium TA100; 0.5 μM),Mutagenic effect TA100-S9 (S. typhimurium TA100; 5.0 μM),Mutagenic effect TA100 (S. typhimurium TA100; 5.0 μM),Mutagenic effect TA100-S9 (S. typhimurium TA100; 50.0 μM),Mutagenic effect TA100 (S. typhimurium TA100; 50.0 μM),Ki (L. donovani TryR) [µM],Positive ROS (stressed population) ([4]; listed as FURAZOLIDONE) [%]
"N#Cc1ccc([N+](=O)[O-])o1 [5-nitro-2-furonitrile, 5-Nitro-2-furonitrile]",Competitive,24.8 ± 1.43,25.8 ± 0.6,0.7 ± 0.05,31.2 ± 5.04,38.2,61.8,1.45 ± 0.11,21.7 ± 0.39,8.49 ± 0.52,–,–,–,–,–,–,–,–,–,–
"O=C1NN(c2ccc(F)c(Cl)c2)C(=O)C1=Cc1ccc([N+](=O)[O-])o1 [PYZD-4409, 1-(3-chloro-4-fluorophenyl)-4-[(5-nitro-2-furyl)methylene]-3,5-pyrazolidinedione]",Competitive,7.63 ± 2.56,20.8 ± 6.4,1.27 ± 0.04,51.7 ± 8.03,36.9,63.1,> 100,16.3 ± 0.56,11.7 ± 0.5,–,–,–,–,–,–,–,–,–,–
CSCC1CN(/N=C/c2ccc([N+](=O)[O-])o2)C(=O)O1 (stereo not drawn) [Nifuratel],–,–,–,–,–,–,–,–,–,–,> 70,complete remission,–,–,–,–,–,–,–,–
NC(=O)N/N=C/c1ccc([N+](=O)[O-])o1 [Nitrofurazone],Uncompetitive,25.8 ± 4.83,40.6 ± 1.97,0.49 ± 0.03,39.6 ± 7.91,44.1,55.9,0.49 ± 0.11,65.5 ± 9.67,38.9 ± 6.32,–,–,+ (0.05),+ (0.001),+ (0.001),+ (0.05),- ^b,- ^b,–,–
O=C1OCCN1/N=C/c1ccc([N+](=O)[O-])o1 [Furazolidone],Uncompetitive,–,–,0.17 ± 0.01,–,45.9,54.1 ± 5.8,0.09 ± 0.004,–,–,–,–,–,–,–,–,–,–,13.7 ± 2.76,54.1
